Test results: patent publication US8129499B2 (priority 2008, dated 2012)
Like-named read-outs stand apart in the source and are kept apart here. Residues, ends and D or L forms follow the SMILES beside them. No end group written: not given here.

Columns and labels:
[1] = test system: purified PR/8 virus; set-up: species or system influenza virus A/PuertoRico/8/34 (PR/8, H1N1)
[2] = test system: purified A/PR/8/34
[3] = test system: MDCK cells; settings: 5-75 μM peptide, 24 hours, in words
[4] = test system: cRBCs; settings: for effect on cRBC membrane integrity: at any concentration (1-30 μM), in words
[5] = in vitro; settings: dog, MDCK cells
[6] = 10 μM peptide, 64 HA units of purified A/PR/8/34, Yes/No
[7] = 10 μM peptide, mock treated virus (64 HAU) = 100% hemagglutination
[8] = 0.1-10 μM peptide, 64 HA units purified PR/8, estimated from dose response curves (Table 3)

In the case of `O=C(CCCCCCC(=O)ON1C(=O)CCC1=O)ON1C(=O)CCC1=O` [DSS, disuccinimidyl suberate, reference compound], the “virion aggregation by electron microscopy” value [1] is reported as “large aggregates”.

For `N=C(N)NCCC[C@H](NC(=O)[C@@H](N)CCCNC(=N)N)C(=O)N[C@@H](CCCCN)C(=O)N[C@@H](CCCCN)C(=O)O` [SEQ. ID. NO: 17, RRKK] (H-RRKK-OH; N-terminus and C-terminus assumed), the HA inhibition [2] was “No”, the antiviral activity [2] was “no antiviral activity” and the “% inhibition” value ([2]; 10 μM) was 0%.

With “EEDDLAVLLALLA [SEQ ID NO: 54, EEDDLAVLLALLA]” the “% inhibition” value ([2]; 10 μM) was 0%.

With “KKLAVLLALLA [SEQ ID NO: 53, KKLAVLLALLA]” the “% inhibition” value ([2]; 10 μM) was 0%.

In the case of KLAVLLALLA [SEQ ID NO: 52, KLAVLLALLA], the “% inhibition” value ([2]; 10 μM) is reported as 25%.

In the case of RKAVLLALLA [SEQ ID NO: 51, RKAVLLALLA], the “viral hemagglutination activity (FIG. 7)” value [2] is reported as “detected to a lesser extent” and the “% inhibition” value ([2]; 10 μM) is reported as 50%.

With “RKKLAVLLALLA [SEQ ID NO: 50, RKKLAVLLALLA]” the EC50 [2] was 8000 nM, the “viral hemagglutination activity (FIG. 7)” value [2] was “detected to a lesser extent” and the “% inhibition” value ([2]; 10 μM) was 75%.

With RRKKA [SEQ. ID. NO: 16, RRKKA] the HA inhibition [2] was “No” and the “% inhibition” value ([2]; 10 μM) was 0%.

In the case of RRKKAA [SEQ. ID. NO: 15, RRKKAA], the HA inhibition [2] is reported as “No” and the “% inhibition” value ([2]; 10 μM) is reported as 0%.

In the case of “RRKKAAAAAAAAA [SEQ ID NO: 49, RRKKAAAAAAAAA]”, the EC50 [2] is reported as roughly 7000 nM, the “viral hemagglutination activity (FIG. 7)” value [2] is reported as “detected to a lesser extent” and the “% inhibition” value ([2]; 10 μM) is reported as 87.5%.

With “RRKKAALLVLAALAVLA [SEQ. ID. NO: 30, RRKKAALLVLAALAVLA]” the HA inhibition [2] was “No” and the “% inhibition” value ([2]; 10 μM) was 0%.

In the case of RRKKAAV [SEQ. ID. NO: 14, RRKKAAV], the HA inhibition [2] is reported as “No” and the “% inhibition” value ([2]; 10 μM) is reported as 0%.

For RRKKAAVA [SEQ. ID. NO: 13, RRKKAAVA], the HA inhibition [2] was “No” and the “% inhibition” value ([2]; 10 μM) was 0%.

With RRKKAAVAL [SEQ. ID. NO: 12, RRKKAAVAL] the HA inhibition [2] was “No” and the “% inhibition” value ([2]; 10 μM) was 0%.

In the case of “RRKKAAVALL [SEQ. ID. NO: 11, RRKKAAVALL]”, the HA inhibition [2] is reported as “No” and the “% inhibition” value ([2]; 10 μM) is reported as 0%.

For “RRKKAAVALLAVLLALLA [SEQ. ID. NO: 43, RRKKAAVALLAVLLALLA]”, the HA inhibition [2, 6] was “Yes”, the “% inhibition” value [2, 7] was 95±2% and the EC50 [2, 8] was 1600 ± 1200 nM.

In the case of “RRKKAAVALLP [SEQ. ID. NO: 10, RRKKAAVALLP]”, the HA inhibition [2] is reported as “No” and the “% inhibition” value ([2]; 10 μM) is reported as 4 ± 8%.

For “RRKKAAVALLPA [SEQ. ID. NO: 9, RRKKAAVALLPA]”, the HA inhibition [2] was “No” and the “% inhibition” value ([2]; 10 μM) was 0%.

In the case of “RRKKAAVALLPAV [SEQ. ID. NO: 8, RRKKAAVALLPAV]”, the HA inhibition [2] is reported as “No” and the “% inhibition” value ([2]; 10 μM) is reported as 0%.

For “RRKKAAVALLPAVL [SEQ. ID. NO: 7, RRKKAAVALLPAVL]”, the HA inhibition [2] was “No” and the “% inhibition” value ([2]; 10 μM) was 0%.

In the case of “RRKKAAVALLPAVLL [SEQ. ID. NO: 6, RRKKAAVALLPAVLL]”, the HA inhibition [2] is reported as “No” and the “% inhibition” value ([2]; 10 μM) is reported as 0%.

With “RRKKAAVALLPAVLLA [SEQ. ID. NO: 5, RRKKAAVALLPAVLLA]” the EC50 [2] was 2800 ± 1100 nM, the HA inhibition [2] was “Yes” and the “% inhibition” value ([2]; 10 μM) was 96 ± 3%.

For “RRKKAAVALLPAVLLAL [SEQ. ID. NO: 4, RRKKAAVALLPAVLLAL]”, the EC50 [2] was 3800 ± 1900 nM, the HA inhibition [2] was “Yes” and the “% inhibition” value ([2]; 10 μM) was 89 ± 3%.

With “RRKKAAVALLPAVLLALL [SEQ. ID. NO: 3, RRKKAAVALLPAVLLALL]” the HA inhibition [2, 6] was “Yes”, the “% inhibition” value [2, 7] was 95 ± 2% and the EC50 [2, 8] was 600 ± 300 nM.

In the case of “RRKKAAVALLPAVLLALLA [SEQ. ID. NO: 2, RRKKAAVALLPAVLLALLA]”, the HA inhibition [2, 6] is reported as “Yes”, the “% inhibition” value [2, 7] is reported as 94 ± 2% and the EC50 [2, 8] is reported as 500 ± 300 nM.

In the case of “RRKKAAVALLPAVLLALLAP [EB, reference compound]”, the “% inhibition” value [2, 7] is reported as 95 ± 2%, the “% inhibition” value ([2]; 10 μM peptide, normalized to EB-treated (10 μM EB) virus (64 HAU) = 100% inhibition (Table 4)) is reported as 100% and the EC50 [2, 8] is reported as 2600 nM. For the same compound, the EC50 ([2]; Example 6, Table 4) was 2000 nM, the “toxicity against MDCK cells” value [3] was “limited toxicity” and the “effect on cRBC membrane integrity” value [4] was “no effect”.

For RRKKALLAP [SEQ. ID. NO: 25, RRKKALLAP], the HA inhibition [2] was “No” and the “% inhibition” value ([2]; 10 μM) was 0%.

For “RRKKALLPAVLLALLAP [SEQ. ID. NO: 20, RRKKALLPAVLLALLAP]”, the EC50 [2] was 700 ± 300 nM, the HA inhibition [2] was “Yes” and the “% inhibition” value ([2]; 10 μM) was 94 ± 3%.

For RRKKAP [SEQ. ID. NO: 28, RRKKAP], the HA inhibition [2] was “No” and the “% inhibition” value ([2]; 10 μM) was 0%.

With “RRKKAVALLPAVLLALLAP [SEQ. ID. NO: 18, RRKKAVALLPAVLLALLAP]” the HA inhibition [2, 6] was “Yes”, the “% inhibition” value [2, 7] was 94 ± 6% and the EC50 [2, 8] was 800 ± 300 nM.

In the case of “RRKKLAALPLVLAAPLAVLA [EBX, reference compound]”, the “% inhibition” value ([2]; 10 μM) is reported as 0% and the “effect on cRBC membrane integrity” value [4] is reported as “no effect”.

In the case of RRKKLAP [SEQ. ID. NO: 27, RRKKLAP], the HA inhibition [2] is reported as “No” and the “% inhibition” value ([2]; 10 μM) is reported as 0%.

In the case of “RRKKLAVAAALLA [SEQ ID NO: 55, RRKKLAVAAALLA]”, the “% inhibition” value ([2]; 10 μM) is reported as 0%.

In the case of “RRKKLAVLLAAAA [SEQ ID NO: 56, RRKKLAVLLAAAA]”, the “% inhibition” value ([2]; 10 μM) is reported as 0%.

In the case of “RRKKLAVLLALLA [SEQ. ID. NO: 45, RRKKLAVLLALLA]”, the “virion aggregation by electron microscopy” value [1] is reported as “large aggregates”, the EC50 [2] is reported as 3000 nM and the HA inhibition [2] is reported as “Yes”.

With “RRKKLLALLAP [SEQ. ID. NO: 24, RRKKLLALLAP]” the HA inhibition [2] was “No” and the “% inhibition” value ([2]; 10 μM) was 0%.

For RRKKLLAP [SEQ. ID. NO: 26, RRKKLLAP], the HA inhibition [2] was “No” and the “% inhibition” value ([2]; 10 μM) was 0%.

For “RRKKLLAVLLALLA [SEQ ID NO: 44, RRKKLLAVLLALLA]”, the EC50 [2] was 3000 nM, the HA inhibition [2] was “Yes” and the “% inhibition” value ([2]; 10 μM) was 95±2%.

For “RRKKLLPAVLLALLAP [SEQ. ID. NO: 21, RRKKLLPAVLLALLAP]”, the EC50 [2] was 800 ± 300 nM, the HA inhibition [2] was “Yes” and the “% inhibition” value ([2]; 10 μM) was 94 ± 4%.

With “RRKKLPAVLLALLAP [SEQ. ID. NO: 22, RRKKLPAVLLALLAP]” the HA inhibition [2] was “Yes” and the “viral hemagglutination activity (FIG. 7)” value [2] was “the same as that for the EB peptide”.

In the case of RRKKP [SEQ. ID. NO: 29, RRKKP], the HA inhibition [2] is reported as “No” and the “% inhibition” value ([2]; 10 μM) is reported as 0%.

With “RRKKVALLAVLLALLA [SEQ. ID. NO: 32, RRKKVALLAVLLALLA]” the EC50 [2] was 500 ± 500 nM, the “% inhibition” value ([2]; 10 μM) was 94 ± 4% and the “toxicity against MDCK cells” value [3] was “significant toxicity”. The “lysis (hemoglobin release) compared to SDS treated control” value ([4]; 10 μM peptide) was 71%, the “lysis (hemoglobin release) compared to SDS treated control” value ([4]; 30 μM peptide) was 100% and the “concentration inducing hemoglobin release” value ([4]; 0.5% cRBC, 1 hour at 37° C.) was “exceeding 5 μM”. It also gave a viability at 24 h, 75 µM [5] of 20%.

In the case of “RRKKVALLPAVLLALLAP [SEQ. ID. NO: 19, RRKKVALLPAVLLALLAP]”, the HA inhibition [2, 6] is reported as “Yes”, the “% inhibition” value [2, 7] is reported as 94 ± 4% and the EC50 [2, 8] is reported as 500 ± 400 nM.

For “RRKKVLLALLAP [SEQ. ID. NO: 23, RRKKVLLALLAP]”, the EC50 [2] was 4000 ± 800 nM, the HA inhibition [2] was “Yes” and the “% inhibition” value ([2]; 10 μM) was 90 ± 4%.
